Results: patent US20110268789A1, “USE OF PITUITARY ADENYLATE CYCLASE-ACTIVATING POLYPEPTIDE (PACAP) AND PACAP ANALOGS AS ADJUNCTIVE TREATMENTS WITH ANTICANCER AGENTS” (priority 2008, published 2011)

How the values were obtained:
[1] = test system: Male C57BL/6 mice; assay: Cisplatin-induced nephrotoxicity in mice; assay type: in vivo, mouse; details: cisplatin 20 mg/kg i.p.
Protocol: (§1) Male C57BL/6 mice were given a single intraperitoneal injection of 20 mg/kg of cisplatin. Twenty nanomoles of PACAP38 were given intraperitoneally 1 hour before the injection of cisplatin and additional doses were given at 24 and 48 hours after the initial dose. The control group of mice was injected intraperitoneally with the same volume of saline as for the injections of cisplatin and PACAP38 on the same schedule. The mice were euthanized 24 hours after the final injection of PACAP38. Each value represents the mean plus/minus the standard error of four determinations. ***p<0.001 and **p<0.01 compared to the group treated only with cisplatin.
as §1, with “PACAP38. TNF-α was extracted from one kidney of each mouse and quantified with an enzyme-linked immunosorbent assay.” for “PACAP38.”
Male C57BL/6 mice were given a single intraperitoneal injection of 20 mg/kg of cisplatin. Twenty nanomoles of PACAP38 were given intraperitoneally 1 hour before the injection of cisplatin and additional doses were given at 24 and 48 hours after the initial dose. The control group of mice were injected intraperitoneally with the same volume of saline as for the injections of cisplatin and PACAP38 on the same schedule. The mice were euthanized 24 hours after the final injection of PACAP38, and the kidneys were removed and fixed in 10% formalin. The fixed sections were stained with hematoxylin and eosin. The sections of the kidneys from control mice show intact renal tubular epithelial cells and well-preserved brush border membranes. The kidneys from mice treated with cisplatin had extensive tubular damage, tubular dilations, intratubular debris, and intratubular casts. […] Tubular damage was more pronounced in the outer cortex in the cisplatin treated mice. The photomicrographs on the left side were made at a lower magnification (×160) than the photomicrographs on the right side (×320). The results described in FIGS. 5, 6, 7, and 8 were from the same experiment.
as §1, with “six” for “four”
as §1, with “The cytoprotective effect of PACAP38 against cisplatin-induced nephrotoxicity was also seen in a common in vivo model. Male” for “Male”, “PACAP38.” for “PACAP38. Each value represents the mean plus/minus the standard error of four determinations. ***p<0.001 and **p<0.01 compared to the group treated only with cisplatin.”

[2] = test system: HK-2 human kidney cells; assay: Doxorubicin-induced apoptotic cell death of human renal proximal tubule epithelial cells; assay type: cell-based; details: HK-2 cells, peptide added to the medium, FIG. 11
Protocol: The HK-2 human kidney cells were cultured in Keratinocyte-Serum Free Medium supplemented with recombinant epidermal growth factor and bovine pituitary extract. […] Each value represents the mean plus/minus the standard deviation of four determinations in three replicate experiments. **p<0.01 and *p<0.05 compared to the doxorubicin-treated (control) cells.
At the highest dose tested (10^−6 M), all three peptides reduced the apoptotic cell death of these epithelial cells by more than 60%.

[3] = test system: L-132 human lung cells; assay: Bleomycin-induced apoptotic cell death of human pulmonary epithelial cells; assay type: cell-based; details: L-132 cells, peptide added to the medium, FIG. 12
Protocol: The L-132 human lung cells were cultured in Eagle's Minimum Essential Medium supplemented with 10% fetal bovine serum. […] Each value represents the mean plus/minus the standard deviation of four determinations in three replicate experiments. **p<0.01 and *p<0.05 compared to the bleomycin-treated (control) cells.
At the highest dose tested (10^−6 M), all three peptides reduced the apoptotic cell death of these epithelial cells by more than 60%. […] Therefore, pre- and/or post-treatment of subjects undergoing bleomycin-based cancer chemotherapy with therapeutic doses of PACAP38 and/or PACAP analogs should result in a higher maximal tolerable dose of bleomycin, and an increased frequency of partial clinical responses and/or an increased number of complete remissions.

[4] = test system: MCF-7 human breast cancer cells; assay: Doxorubicin-induced apoptotic cell death of breast cancer cells; assay type: cell-based; details: MCF-7 cells, doxorubicin 48 hours, FIG. 14
Protocol: The MCF-7 human breast cancer cells were cultured in Eagle's Minimum Essential Medium supplemented with 10% non-inactivated fetal bovine serum and 0.05 mM 2-mercaptoethanol. The effects of PACAP38 and N-acetyl[Ala^16,17,D-Lys^38]PACAP38 on apoptotic cell death were assessed by the quantitative determination of cytoplasmic histone-associated DNA-fragmentation (mono- and oligonucleosomes) after exposure to doxorubicin for 48 hours. Each value represents the mean plus/minus the standard deviation of three determinations. **p<0.01 compared to the doxorubicin-treated (control) cells.
At the highest dose tested (10^−6 M), both peptides reduced the apoptotic cell death of these breast cancer cells by more than 50%.

[5] = test system: light-chain immunoglobulin-secreting human myeloma cells; assay: Vincristine-induced apoptotic cell death of myeloma cells; assay type: cell-based
Protocol: The light-chain immunoglobulin-secreting human myeloma cells were cultured in RPMI 1640 medium supplemented with 10% non-inactivated fetal bovine serum and 0.05 mM 2-mercaptoethanol. The effects of PACAP38 on apoptotic cell death was assessed by the quantitative determination of cytoplasmic histone-associated DNA-fragmentation (mono- and oligonucleosomes) after exposure to vincristine for 48 hours. Each value represents the mean plus/minus the standard deviation of four determinations. **p<0.01 and *p<0.05 compared to the vincristine-treated (control) cells.

[6] = test system: Four-vessel occlusion in the rat; details: cited from earlier work

Substance: PACAP38
- increase in TNF-α in the kidney ([1]; 20 nanomoles peptide i.p. 1 h before and at 24 and 48 h, ELISA, FIG. 8): significantly reduced
- increase in serum creatinine ([1]; 20 nanomoles peptide i.p. 1 h before and at 24 and 48 h, FIG. 6): significantly reduced
- increase in blood urea nitrogen ([1]; 20 nanomoles peptide i.p. 1 h before and at 24 and 48 h, FIG. 7): significantly reduced
- morphology of the kidney (hematoxylin and eosin) ([1]; 20 nanomoles peptide i.p. 1 h before and at 24 and 48 h, FIG. 9): relatively well preserved tubular morphology
- relative potency as cytoprotectants against cisplatin-induced impairment of kidney function (serum creatinine) ([1]; FIG. 10): approximately equipotent
- reduction in doxorubicin-induced apoptotic cell death [2]: significant dose-dependent reduction
- reduction in bleomycin-induced apoptotic cell death [3]: significant dose-dependent reduction
- reduction in doxorubicin-induced apoptotic cell death [4]: dose-dependent reduction
- lowest dose with significant enhancement of vincristine-induced apoptotic cell death [5]: 10^−9 M
- effect on vincristine-induced apoptotic cell death ([5]; vincristine 48 hours, FIG. 18): dose-dependent enhancement
- reduction in the number of CA1 pyramidal cells at day 7 post-occlusion ([6]; 16 pmol/hr or 160 pmol/hr i.v. for 6 days beginning 24 hours after occlusion): significantly reversed
- side-effects during 6 days continuous infusion ([6]; 16 pmol/hr or 160 pmol/hr i.v.): no obvious side-effects
